In patent US12338214B2, “Bexarotene derivatives and their use in treating cancer” (DJ THERAPEUTICS LLC, priority 2018, dated 2025):

Assays:
MV4;11 cells = test: Cell count activity in MV4;11 cells; assay type: cell-based, human; conditions: 5 days, FIG. 5
Experimental: (§1) NB4 cells or MV4;11 cells were grown in RPMI, 10% fetal bovine serum and plated at a density of 25,000 cells/mL in presence or absence of compound of the disclosure (dissolved in DMSO) for 5 days. Cells were counted manually on a light microscope using a hemocytometer and Trypan blue exclusion or on the Nexcelom Cellometer Auto 2000 using Cellometer Viastain AOPI staining solution (Nexcelom CS2-0106).

NB4 cells = test: Cell count activity in NB4 cells; assay type: cell-based, human; conditions: 5 days, FIG. 4
Experimental: as §1

Row | Compound | reduction in cell counts (MV4;11 cells) | reduction in cell counts (NB4 cells)
1 | CC1=C(/C=C/C(C)=C/C=C/C(C)=C/C(=O)O)C(C)(C)CCC1 [ATRA, all-trans retinoic acid] | dose dependent reduction in cell counts | 
2 | C=C(c1ccc(C(=O)O)cc1)c1cc2c(cc1C)C(C)(C)CCC2(C)C [bexarotene] |  | dose dependent reduction in cell counts
